In the OligoGym collection:
Oligonucleotides are written 5' to 3', each unit as a sugar letter and its base; * is a phosphorothioate linkage, no mark a phosphodiester; rarer units and linkages stand in square brackets, end groups in braces. Plain capitals give the bases only. d = 2'-deoxy (DNA); r = 2'-OH (RNA)

Each substance was assayed against NOG (assay: reporter assay of Huesken 2005). Conditions: siRNA.
Note: test concentration or dose not given here.

Substance	normalised inhibition (eCFP-eYFP dual reporter)
sense rArCrArUrUrCrUrGrCrCrCrCrGrUrGrCrUrGrUdTdT / antisense rArCrArGrCrArCrGrGrGrGrCrArGrArArUrGrUdCdT	60%
sense rArCrCrUrCrArUrCrGrArArCrArCrCrCrArGrAdTdT / antisense rUrCrUrGrGrGrUrGrUrUrCrGrArUrGrArGrGrUdCdC	102%
sense rArCrGrArCrCrUrGrGrGrCrArGrCrCrGrCrUrUdTdT / antisense rArArGrCrGrGrCrUrGrCrCrCrArGrGrUrCrGrUdTdC	51.1%
sense rArCrUrArUrCrUrCrCrArCrArUrCrCrGrCrCrCdTdT / antisense rGrGrGrCrGrGrArUrGrUrGrGrArGrArUrArGrUdGdC	52.8%
sense rArGrArGrUrUrCrUrCrCrGrArGrGrGrCrUrUrGdTdT / antisense rCrArArGrCrCrCrUrCrGrGrArGrArArCrUrCrUdAdG	55.1%
sense rArGrCrArArGrArArGrCrUrGrCrGrGrArGrGrAdTdT / antisense rUrCrCrUrCrCrGrCrArGrCrUrUrCrUrUrGrCrUdTdA	97.7%
sense rArGrGrGrCrArUrGrGrUrGrUrGrCrArArGrCrCdTdT / antisense rGrGrCrUrUrGrCrArCrArCrCrArUrGrCrCrCrUdCdG	75.7%
sense rArGrUrArArGrCrGrCrUrCrGrUrGrCrUrCrCrGdTdT / antisense rCrGrGrArGrCrArCrGrArGrCrGrCrUrUrArCrUdGdA	51%
sense rArUrCrCrGrCrCrCrGrGrCrArCrCrCrArGrCrGdTdT / antisense rCrGrCrUrGrGrGrUrGrCrCrGrGrGrCrGrGrArUdGdT	42.7%
sense rArUrCrUrCrCrArCrArUrCrCrGrCrCrCrGrGrCdTdT / antisense rGrCrCrGrGrGrCrGrGrArUrGrUrGrGrArGrArUdAdG	60.2%
sense rArUrGrGrUrGrUrGrCrArArGrCrCrGrUrCrCrAdTdT / antisense rUrGrGrArCrGrGrCrUrUrGrCrArCrArCrCrArUdGdC	86.2%
sense rArUrUrCrUrGrCrCrCrCrGrUrGrCrUrGrUrArCdTdT / antisense rGrUrArCrArGrCrArCrGrGrGrGrCrArGrArArUdGdT	51%
sense rCrArArGrGrArArArArGrGrArUrCrUrGrArArCdTdT / antisense rGrUrUrCrArGrArUrCrCrUrUrUrUrCrCrUrUrGdGdG	95.1%
sense rCrArCrCrUrCrArCrGrGrUrGrCrUrGrCrGrGrUdTdT / antisense rArCrCrGrCrArGrCrArCrCrGrUrGrArGrGrUrGdCdA	56.3%
sense rCrArGrArCrCrCrUrArUrCrUrUrUrGrArCrCrCdTdT / antisense rGrGrGrUrCrArArArGrArUrArGrGrGrUrCrUrGdGdG	88.8%
sense rCrArGrCrGrCrCrUrArArGrCrArArGrArArGrCdTdT / antisense rGrCrUrUrCrUrUrGrCrUrUrArGrGrCrGrCrUrGdCdT	62.6%
sense rCrArGrCrUrGrCrUrUrCrArGrUrArArGrCrGrCdTdT / antisense rGrCrGrCrUrUrArCrUrGrArArGrCrArGrCrUrGdCdC	56.5%
sense rCrCrArCrArUrCrCrGrCrCrCrGrGrCrArCrCrCdTdT / antisense rGrGrGrUrGrCrCrGrGrGrCrGrGrArUrGrUrGrGdAdG	51.4%
sense rCrCrArGrCrUrGrCrUrGrCrGrGrCrArGrCrGrGdTdT / antisense rCrCrGrCrUrGrCrCrGrCrArGrCrArGrCrUrGrGdTdC	78.3%
sense rCrCrCrArGrCrGrArCrArArCrCrUrGrCrCrCrCdTdT / antisense rGrGrGrGrCrArGrGrUrUrGrUrCrGrCrUrGrGrGdTdG	68.1%
sense rCrCrCrGrUrGrCrUrGrUrArCrGrCrGrUrGrGrAdTdT / antisense rUrCrCrArCrGrCrGrUrArCrArGrCrArCrGrGrGdGdC	60.3%
sense rCrCrUrArUrCrUrUrUrGrArCrCrCrCrArArGrGdTdT / antisense rCrCrUrUrGrGrGrGrUrCrArArArGrArUrArGrGdGdT	89.1%
sense rCrCrUrCrArCrGrGrUrGrCrUrGrCrGrGrUrGrGdTdT / antisense rCrCrArCrCrGrCrArGrCrArCrCrGrUrGrArGrGdTdG	70.1%
sense rCrCrUrCrArUrCrGrArArCrArCrCrCrArGrArCdTdT / antisense rGrUrCrUrGrGrGrUrGrUrUrCrGrArUrGrArGrGdTdC	79.3%
sense rCrCrUrGrGrUrGrGrArCrCrUrCrArUrCrGrArAdTdT / antisense rUrUrCrGrArUrGrArGrGrUrCrCrArCrCrArGrGdGdG	81.7%
sense rCrGrCrArGrArCrArUrUrCrUrGrCrCrCrCrGrUdTdT / antisense rArCrGrGrGrGrCrArGrArArUrGrUrCrUrGrCrGdAdC	53%

Substance	normalised inhibition (eCFP-eYFP dual reporter)
sense rCrGrCrUrGrCrUrGrCrGrCrUrCrGrCrUrGrCrUdTdT / antisense rArGrCrArGrCrGrArGrCrGrCrArGrCrArGrCrGdTdC	73.4%
sense rCrUrGrArArCrGrArGrArCrGrCrUrGrCrUrGrCdTdT / antisense rGrCrArGrCrArGrCrGrUrCrUrCrGrUrUrCrArGdAdT	46.9%
sense rCrUrGrGrCrGrGrArGrCrUrGrGrArCrCrArGrCdTdT / antisense rGrCrUrGrGrUrCrCrArGrCrUrCrCrGrCrCrArGdGdT	58.7%
sense rGrArArCrGrArCrCrUrGrGrGrCrArGrCrCrGrCdTdT / antisense rGrCrGrGrCrUrGrCrCrCrArGrGrUrCrGrUrUrCdCdA	59.1%
sense rGrArArCrGrArGrArCrGrCrUrGrCrUrGrCrGrCdTdT / antisense rGrCrGrCrArGrCrArGrCrGrUrCrUrCrGrUrUrCdAdG	74.1%
sense rGrArArGrCrArGrCrGrCrCrUrArArGrCrArArGdTdT / antisense rCrUrUrGrCrUrUrArGrGrCrGrCrUrGrCrUrUrCdTdT	83%
sense rGrArArGrCrUrGrCrGrGrArGrGrArArGrUrUrAdTdT / antisense rUrArArCrUrUrCrCrUrCrCrGrCrArGrCrUrUrCdTdT	102%
sense rGrArCrCrArGrCrUrGrCrUrGrCrGrGrCrArGrCdTdT / antisense rGrCrUrGrCrCrGrCrArGrCrArGrCrUrGrGrUrCdCdA	55.2%
sense rGrArCrCrCrArGrGrCrUrUrCrArUrGrGrCrCrAdTdT / antisense rUrGrGrCrCrArUrGrArArGrCrCrUrGrGrGrUrCdGdT	82.6%
sense rGrArCrCrUrGrGrGrCrArGrCrCrGrCrUrUrUrUdTdT / antisense rArArArArGrCrGrGrCrUrGrCrCrCrArGrGrUrCdGdT	77.1%
sense rGrArCrGrCrUrGrCrUrGrCrGrCrUrCrGrCrUrGdTdT / antisense rCrArGrCrGrArGrCrGrCrArGrCrArGrCrGrUrCdTdC	70.9%
sense rGrArGrCrUrGrGrArCrCrArGrCrUrGrCrUrGrCdTdT / antisense rGrCrArGrCrArGrCrUrGrGrUrCrCrArGrCrUrCdCdG	71.8%
sense rGrArUrCrArArArGrGrGrCrUrArGrArGrUrUrCdTdT / antisense rGrArArCrUrCrUrArGrCrCrCrUrUrUrGrArUrCdTdC	78.3%
sense rGrArUrGrUrGrGrCrUrGrUrGrGrUrCrGrCrArGdTdT / antisense rCrUrGrCrGrArCrCrArCrArGrCrCrArCrArUrCdTdG	81.7%
sense rGrCrArGrCrCrGrCrUrUrUrUrGrGrCrCrGrCrGdTdT / antisense rCrGrCrGrGrCrCrArArArArGrCrGrGrCrUrGrCdCdC	46.4%
sense rGrCrArGrCrUrGrCrUrUrCrArGrUrArArGrCrGdTdT / antisense rCrGrCrUrUrArCrUrGrArArGrCrArGrCrUrGrCdCdC	63.1%
sense rGrCrCrCrGrGrCrArCrCrCrArGrCrGrArCrArAdTdT / antisense rUrUrGrUrCrGrCrUrGrGrGrUrGrCrCrGrGrGrCdGdG	88.4%
sense rGrCrCrGrGrCrGrGrCrCrArGrCrArCrUrArUrCdTdT / antisense rGrArUrArGrUrGrCrUrGrGrCrCrGrCrCrGrGrCdCdG	82.2%
sense rGrCrCrGrUrCrCrArArGrUrCrCrGrUrGrCrArCdTdT / antisense rGrUrGrCrArCrGrGrArCrUrUrGrGrArCrGrGrCdTdT	66.1%
sense rGrCrCrUrArArGrCrArArGrArArGrCrUrGrCrGdTdT / antisense rCrGrCrArGrCrUrUrCrUrUrGrCrUrUrArGrGrCdGdC	85.7%
sense rGrCrGrArGrArUrCrArArArGrGrGrCrUrArGrAdTdT / antisense rUrCrUrArGrCrCrCrUrUrUrGrArUrCrUrCrGrCdTdC	96.7%
sense rGrCrGrGrCrArGrCrGrGrCrCrGrUrCrGrGrGrGdTdT / antisense rCrCrCrCrGrArCrGrGrCrCrGrCrUrGrCrCrGrCdAdG	70.5%
sense rGrCrUrGrCrGrCrUrCrGrCrUrGrCrUrCrGrGrGdTdT / antisense rCrCrCrGrArGrCrArGrCrGrArGrCrGrCrArGrCdAdG	67.1%
sense rGrCrUrGrCrGrGrUrGrGrCrGrCrUrGrUrCrArGdTdT / antisense rCrUrGrArCrArGrCrGrCrCrArCrCrGrCrArGrCdAdC	80.5%
sense rGrCrUrGrCrUrGrCrGrCrUrCrGrCrUrGrCrUrCdTdT / antisense rGrArGrCrArGrCrGrArGrCrGrCrArGrCrArGrCdGdT	78.8%

The substances below were run against UBE2L6 (assay: reporter assay of Huesken 2005). Conditions: siRNA.

Substance	normalised inhibition (eCFP-eYFP dual reporter)
sense rUrUrCrCrCrGrCrCrGrGrArGrUrArUrCrCrGrUdTdT / antisense rArCrGrGrArUrArCrUrCrCrGrGrCrGrGrGrArAdGdC	43%
